Data reported in patent US9624243B2, “Heterocyclic compounds and methods of their use” (Novartis AG, priority 2012, dated 2017).
pIC50, pKi: −log10 of the molar value.

Assays:
AT1 receptor = AT1 receptor (Homo sapiens (Human), UniProt P30556); test: AT1 Receptor Binding; conditions: HEK293/AT1 receptor transient cell membranes, [125I]-Sar1-Ile8-Angiotensin II; top concentration tested 10 μM
Text: The same media, solutions, cell procedures and compound preparation was used as for Biological Example 1 but using HEK293/AT1 Receptor Transient Cells.

NG108-15 neurite cells = test: AT2 Receptor Neurite Outgrowth Assay; type: cell-based; conditions: NG108-15 cells, in the presence of angiotensin II 0.1 μM, compound 0.003-10 μM
Procedure: The general methodology of Wallinder (2008) and references cited therein was used to assess the effect of the compounds of the present invention on neurite outgrowth. The assay was adapted for high content screening.
EMA1087 is a known AT2 receptor agonist described as “compound 21” in Wan et al. 2004. PD-123,319 is a known, commercially available AT2 receptor antagonist. The results were analyzed by immunofluorescence quantitative analysis. Neurite outgrowth was quantified with neurite average length using Cellomics software. Results are expressed as the mean±SEM, each conducted in triplicate. Statistical significance, compared with Ang II control: *p<0.05, **p<0.01, and ***p<0.001. NS: no significant difference. ND: not determined. FIGS. 1 to 5 show neurite outgrowth was inhibited by the AT2 receptor antagonists, PD-126,055 and compounds 6, 15, 21 and 28.

AT2 receptor = AT2 receptor (Homo sapiens (Human), UniProt P50052); test: AT2 Receptor Binding; conditions: HEK293 AT2 receptor transient cell membranes, [125I]-CGP42112A
Procedure: 1. Trypsin-EDTA (for Preparation of 100 mL)
• Dissolve trypsin in 2% EDTA and PBS completely; sterilize the solution by passing through a […] membrane filter; store at 4° C.
2. DMEM Medium (for Preparation of 1 L) • The powder was dissolved into 950 mL of distilled water with gentle stirring until the solution becomes clear. • Add. NaHCO3 1.176 g for DMEM medium. • Adjust pH of medium to 0.2˜0.3 below final working pH using 1 M NaOH or 1 M • HCl. Add slowly with stirring. • Dilute to 1 liter with ddH2O. • Sterilize the medium immediately by filtration. • Store at 4° C.
3. TE Buffer • 20 mM Tris-HCl, pH 7.4, • 5 mM EDTA
4. Binding Assay Buffer • 50 mM Hepes, pH 7.4 • 5 mM MgCl2 • 1 mM CaCl2 • 0.2% BSA
5. Wash Buffer • 50 mM Hepes, pH 7.4 Procedures for HEK293AT2 Receptor Transient Cell Transfection • Cells were plated into 150 mm dish at 50% density for transient transfection. Cells were ready for transfection after overnight incubation (the confluence reaches around 80%). • 75 μL Lipofectamine™2000 diluted in 6.25 mL OptiMEM I Reduced Serum Medium, was mixed gently, and incubated at room temperature for 5 minutes. 50 μg expression plasmid DNA diluted in 6.25 mL OptiMEM I Reduced Serum Medium without serum was mixed gently. • After the 5 minute incubation, the diluted DNA was combined with the diluted Lipofectamine™2000 (total volume is 12.5 mL). The mixture was mixed gently and incubated for 30 minutes at room temperature to allow the DNA-Lipofectamine™2000 complexes to form. • The 12.5 mL DNA-Lipofectamine™2000 complexes were added into the 150 mm dish and mixed gently by rocking the dish back and forth. • The cells were incubated at 37° C. with 5% CO2 for 48 hours. Cells were collected and stored frozen at −80° C. Procedures for HEK293AT2 Receptor Cell Membrane Preparation • Frozen HEK293AT2 receptor (transient transfected) cells were homogenized in ice cold TE buffer for 10s. • The homogenate was centrifuged at 25,000 g for 30 minutes. • The pellet was resuspended in ice cold tissue buffer. • Protein concentrations were determined using Bradford assay method with BSA as standard. • The membrane protein was frozen under −80° C. Compound Preparation
Solutions of all compounds were prepared bymicroplate liquid handling equipment such as Janus or Precision 2000. Compounds, dissolved in DMSO were stored in a Freezer. Compounds were prepared from 30 mM in 100% DMSO.
Step 1: Dose Plate Preparation (96 Well Plate)
• Add the 3 μL [30 mM] compound stock to column 1 on the plate. • Add 15 μL of 100% DMSO to column 1. • Add 10.81 μL of 100% DMSO to column 2-12. • Transfer 5 μL from column 1 into column 2 (half log dilution). • Transfer 5 μL from column 2 into column 3 (half log dilution). • Transfer 5 μL from column 3 into column 4 (half log dilution). • Transfer 5 μL from column 4 into column 5 (half log dilution). • Transfer 5 μL from column 5 into column 6 (half log dilution). • Transfer 5 μL from column 6 into column 7 (half log dilution). • Transfer 5 μL from column 7 into column 8 (half log dilution). • Transfer 5 μL from column 8 into column 9 (half log dilution). • Transfer 5 μL from column 9 into column 10 (half log dilution) • Transfer 5 μL from column 10 into column 11 (half log dilution) • Transfer 5 μL from column 11 into column 12 (half log dilution).
All the compounds were diluted using Precision 2000 microplate liquid handling equipment. The top concentration of compound was 5 mM with 100% DMSO.
Step 2: Working Plate Preparation (96 Well Plate)
• Compounds were diluted 50-fold with buffer. • 49 μL buffer was added to the well of 96 well plate. • 1 μL compound solution from dose plate was transferred to the corresponding well of working plate. • The top concentration of compound was 100 μM with 2% DMSO. Step 3: Assay Plate Preparation (96 Well Plate)
15 μL of compound solution was transferred from each well of working plate to the well of assay plate by Janus.

Sequence of AT1 receptor (P30556 whole entry, species assumed): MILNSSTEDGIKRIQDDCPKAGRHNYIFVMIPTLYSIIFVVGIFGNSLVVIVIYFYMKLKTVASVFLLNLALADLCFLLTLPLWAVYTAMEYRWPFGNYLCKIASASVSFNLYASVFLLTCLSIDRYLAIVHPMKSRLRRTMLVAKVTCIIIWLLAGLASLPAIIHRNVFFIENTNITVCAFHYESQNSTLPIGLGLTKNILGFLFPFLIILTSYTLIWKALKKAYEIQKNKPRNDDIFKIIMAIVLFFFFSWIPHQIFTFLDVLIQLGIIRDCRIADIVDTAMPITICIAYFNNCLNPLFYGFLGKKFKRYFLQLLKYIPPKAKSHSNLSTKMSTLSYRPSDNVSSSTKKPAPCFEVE
Sequence of AT2 receptor (P50052 whole entry, species assumed): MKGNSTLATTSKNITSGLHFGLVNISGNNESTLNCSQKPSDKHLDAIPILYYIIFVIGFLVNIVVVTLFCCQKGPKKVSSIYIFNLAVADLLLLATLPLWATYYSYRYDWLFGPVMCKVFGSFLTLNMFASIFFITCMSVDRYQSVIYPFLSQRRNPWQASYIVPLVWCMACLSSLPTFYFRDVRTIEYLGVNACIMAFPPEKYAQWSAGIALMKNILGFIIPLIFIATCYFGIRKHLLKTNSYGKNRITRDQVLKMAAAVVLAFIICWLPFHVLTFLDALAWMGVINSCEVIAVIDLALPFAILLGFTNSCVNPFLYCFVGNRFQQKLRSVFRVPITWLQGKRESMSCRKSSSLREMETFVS

Row | Compound | pIC50 (AT1 receptor) | pKi (AT1 receptor) | neurite outgrowth (neurite average length) (NG108-15 neurite cells) | pIC50 (AT2 receptor)
1 | CN(CCCc1ccccc1)[C@H]1C[C@@H](C(=O)O)N(C(=O)C(c2ccccc2)c2ccccc2)C1 [Compound 21, (2S,4S)-1-(2,2-diphenylacetyl)-4-(methyl(3-phenylpropyl)amino)pyrrolidine-2-carboxylic acid] | < 5.00 | < 5.00 | inhibited | 7.21
2 | O=C(O)[C@@H]1C[C@H](N2CCOC[C@@H]2Cc2ccccc2)CN1C(=O)C(c1ccccc1)c1ccccc1 [Compound 28, (2S,4S)-4-((S)-3-benzylmorpholino)-1-(2,2-diphenylacetyl)pyrrolidine-2-carboxylic acid] | – | – | inhibited | 7.06
3 | O=C(O)[C@@H]1C=C(c2sccc2-c2ccccc2)CN1C(=O)C(c1ccccc1)c1ccccc1 [Compound 139, (S)-1-(2,2-diphenylacetyl)-4-(3-phenylthiophen-2-yl)-2,5-dihydro-1H-pyrrole-2-carboxylic acid] | – | – | – | 5.60
4 | O=C(O)[C@@H]1[C@@H](OCCCc2ccccc2)CN1C(=O)C(c1ccccc1)c1ccccc1 (mixture of isomers) [Compound 142, (2S,3S)-1-(2,2-diphenylacetyl)-3-(3-phenylpropoxy)-azetidine-2-carboxylic acid and (2R,3R)-1-(2,2-diphenylacetyl)-3-(3-phenylpropoxy)-azetidine-2-carboxylic acid] | – | – | – | 6.00
5 | O=C(O)[C@@H]1C[C@H](COCc2ccccc2)CN1C(=O)C(c1ccccc1)c1ccccc1 [Compound 54] | – | – | – | 6.81
6 | O=C(O)[C@@H]1C[C@H](c2ncc(-c3ccccc3)o2)CN1C(=O)C(c1ccccc1)c1ccccc1 [Compound 56] | – | – | – | 6.50
7 | O=C(O)[C@@H]1C[C@H](n2nncc2Cc2ccccc2)CN1C(=O)C(c1ccccc1)c1ccccc1 [Compound 101, (2S,4S)-4-(5-benzyl-1H-1,2,3-triazol-1-yl)-1-(2,2-diphenylacetyl)pyrrolidine-2-carboxylic acid] | – | – | – | 6.40
8 | O=C(O)[C@@H]1C[C@H](n2nncc2-c2ccccc2)CN1C(=O)C(c1ccccc1)c1ccccc1 [Compound 100, (2S,4S)-1-(2,2-diphenylacetyl)-4-(5-phenyl-1H-1,2,3-triazol-1-yl)pyrrolidine-2-carboxylic acid] | – | – | – | 7.74
9 | O=C(O)[C@@H]1C[C@H](CS(=O)(=O)Cc2ccccc2)CN1C(=O)C(c1ccccc1)c1ccccc1 [Compound 118, (2S,4S)-4-((benzylsulfonyl)methyl)-1-(diphenylacetyl)-pyrrolidine-2-carboxylic acid] | – | – | – | 6.50
10 | COc1ccc2c(c1OCc1ccccc1)C[C@@H](C(=O)O)N(C(=O)C(c1ccccc1)c1ccccc1)C2 [PD-126,055, reference compound] | < 5.00 | < 5.00 | inhibited | –
11 | O=C(O)[C@@H]1C[C@H](N2CCCCC2Cc2ccccc2)CN1C(=O)C(c1ccccc1)c1ccccc1 (single isomer, unassigned) [Compound 70-B] | – | – | – | 5.87
12 | O=C(O)[C@@H]1C=C(C#CCCc2ccccc2)CN1C(=O)C(c1ccccc1)c1ccccc1 [Compound 140, (S)-1-(2,2-diphenylacetyl)-4-(4-phenylbut-1-yn-1-yl)-2,5-dihydro-1H-pyrrole-2-carboxylic acid] | – | – | – | 6.17
13 | O=C(O)[C@@H]1C[C@H](N2CC[C@H](c3ccccc3)C2)CN1C(=O)C(c1ccccc1)c1ccccc1 [Compound 87] | – | – | – | 7.36
14 | O=C(O)[C@@H]1C[C@H](N2CCCCC2Cc2ccccc2)CN1C(=O)C(c1ccccc1)c1ccccc1 (single isomer, unassigned) [Compound 70-A] | – | – | – | 7.31
15 | O=C(CCc1ccccc1)N[C@H]1C[C@@H](C(=O)O)N(C(=O)C(c2ccccc2)c2ccccc2)C1 [Compound 96, (2S,4S)-1-(2,2-diphenylacetyl)-4-(3-phenylpropanamido)-pyrrolidine-2-carboxylic acid] | – | – | – | 5.65
